We go through two molecules from patent publication US20240148679A1, “METHODS AND COMPOSITIONS RELATED TO TREATMENT AND PREVENTION OF CANCER BY INHIBITION OF DGAT1 AND DGAT2” (Ohio State Innovation Foundation, priority 2019, published 2024).

The subject of assay [1] is HepG2 cells. Put plainly: Lipid droplet and TG levels in liver cancer cell line HepG2. It is filed as cell-based, human. As for the experimental part:
(A) RT-qPCR analysis of DGAT1 vs. DGAT2 mRNA expression in GBM cells (U251 and GBM30) and in liver cancer cell line (HepG2). The results are shown as mean±SD (n=3). Statistical significance was determined by a paired Student's t-test. *P<0.01; n.s., not significant. (B) Representative fluorescence imaging of LDs stained with BODIPY 493/503 (green) (upper panels) and TLC analysis of TG levels (lower panels) in GBM and liver cancer cells after treatments with the DGAT1 inhibitor A-922500 (20 μg/ml) or DGAT2 inhibitor PF-06424439 ([…]) alone or in combination for 24 hr. Nuclei were stained with Hoechst 33342 (blue). Scale bar, 10 m. LDs were quantified by the ImageJ software in more than 30 cells in each treatment group (mean±SEM). TG levels were quantified by the ImageJ software and normalized to the untreated control group (mean±SD, n=3). Statistical significance was determined by one-way ANOVA. * P<0.001; #P<0.05. (C) Percentage of dead GBM or liver cancer cells after treatment with DGAT1 or DGAT2 inhibitors alone or in combination for 3 days as in panel B. Live and dead cells were counted after trypan blue staining (mean SD, n=3). Statistical significance was determined by one-way ANOVA. * P<0.0001. (D) Western blot analysis of DGAT1 expression in membrane extracts from GBM and liver cancer cells after infection with shRNA-expressing lentivirus against DGAT1 for 48 hr. PDIA1, an ER protein marker, was used as an internal control. (E) RT-qPCR analysis of DGAT2 mRNA expression in GBM and liver cancer cells after infection with shRNA-expressing lentivirus against DGAT2 for 48 hr. The expression level was normalized to control cells and shown as mean±SD (n=3). Statistical significance was determined by one-way ANOVA. * P<0.01. (F) Representative fluorescence images of LDs stained with BODIPY 493/503 (upper panels) and TLC analysis of TG levels (lower panels) in GBM and liver cancer cells after lentivirus-mediated shRNA knockdown of DGAT1 or DGAT2 alone or in combination for 48 hr. Scale bar, 10 m. Quantification and significance analysis of LDs and TG levels in different groups were the same as in panel B. * P<0.001; #P<0.05. (G) Percentage of dead GBM or liver cancer cells after lentivirus-mediated shRNA knockdown of DGAT1 or DGAT2 alone or in combination for 4 days. Cell death percentage and significance were determined as in panel c (mean±SD, n=3). *P<0.0001; #P<0.001. […]
For live cells, lipid droplets were stained with BODIPY 493/503 ([…]) (Cat #D-3922; Life Technologies) for 30 min and visualized by confocal microscopy (Carl Zeiss LSM510 Meta, 63×/1.4 NA oil). More than 30 cells were analyzed and LD numbers were quantified with the Image J software (NIH) in a 3D stack, as previously described in Geng 2016. […]

Assay [2] deals with HepG2 cells. As to the kind of experiment: HepG2 cell death, trypan blue counting. The class given is cell-based, human. The note with it: DGAT1 and DGAT2 inhibitors alone or in combination, 3 days. As to the method:
(A) RT-qPCR analysis of DGAT1 vs. DGAT2 mRNA expression in GBM cells (U251 and GBM30) and in liver cancer cell line (HepG2). The results are shown as mean±SD (n=3). Statistical significance was determined by a paired Student's t-test. *P<0.01; n.s., not significant. (B) Representative fluorescence imaging of LDs stained with BODIPY 493/503 (green) (upper panels) and TLC analysis of TG levels (lower panels) in GBM and liver cancer cells after treatments with the DGAT1 inhibitor A-922500 (20 μg/ml) or DGAT2 inhibitor PF-06424439 ([…]) alone or in combination for 24 hr. Nuclei were stained with Hoechst 33342 (blue). Scale bar, 10 m. LDs were quantified by the ImageJ software in more than 30 cells in each treatment group (mean±SEM). TG levels were quantified by the ImageJ software and normalized to the untreated control group (mean±SD, n=3). Statistical significance was determined by one-way ANOVA. * P<0.001; #P<0.05. (C) Percentage of dead GBM or liver cancer cells after treatment with DGAT1 or DGAT2 inhibitors alone or in combination for 3 days as in panel B. Live and dead cells were counted after trypan blue staining (mean SD, n=3). Statistical significance was determined by one-way ANOVA. * P<0.0001. […] Statistical significance was determined by one-way ANOVA. * P<0.01. […] Cell death percentage and significance were determined as in panel c (mean±SD, n=3). *P<0.0001; #P<0.001. […]

Setting [3] is: inhibition of both enzymes (A-922500 + PF-06424439).
Where [4] appears, read: single inhibitor, 20 μg/ml, 24 hr.

Molecules are shown by their SMILES.

With `O=C(Nc1ccccc1)Nc1ccc(-c2ccc(C(=O)[C@@H]3CCC[C@H]3C(=O)O)cc2)cc1` [A-922500], the figures for the LDs/TG levels entry in the assay with HepG2 cells [1] (setting [3]) and with HepG2 cells [1] (setting [4]) were “strongly reduce” and “only slightly decreased”, respectively. In addition, the “cell death of HepG2 cells” value in the assay with HepG2 cells [2] is “inhibition of both enzymes was required for cell death”.
Take `CS(=O)(=O)O.O=C([C@@H]1CCCN(c2ccc3[nH]c(C4(n5cc(Cl)cn5)CC4)nc3n2)C1)N1CCCC1` [PF-06424439]: the LDs/TG levels entry is “strongly reduce” with HepG2 cells [1] (setting [3]) and “only slightly decreased” with HepG2 cells [1] (setting [4]). In addition, in the assay on HepG2 cells [2], the “cell death of HepG2 cells” value is “inhibition of both enzymes was required for cell death”.
